From US8193235B2, “Compositions and methods for establishing and maintaining stem cells in an undifferentiated state” (University of Kansas, priority 2009, dated 2012)

Tests used:
PKC ζ = target: T1, PKC ζ (Mus musculus, UniProt Q02956); experiment: Western blot analysis of p-PKC ζ in ES cells; format: cell-based
T1 construct: endogenous in cells; host or cells: mouse ES cells (E14)
Method: Western Blot Analysis. Whole cell lysates were prepared in SDS-gel loading buffer and resolved by 10% PAGE. The antibodies used for this study included β-actin Clone AC-15 from Sigma; p-STAT3 (Tyr705), p-p44/42 MAPK (tyr202/tyr204), p44/42 MAPK, GSK3β, Phospho Akt (Ser473), Akt, p-NFκβ p65 (Ser536), c-Myc, p-c-Myc (Thr58/Ser62), p-p90RSK (Thr359/Ser363), RSK1, Suz12 (D39F6), and Ezh2 (AC22) from Cell Signaling Technology; STAT3 (C-20), Oct-4 (C-10), Nanog (M-149), PKC α (C-20), PKC βI (C-16), PKC βII (C-18), PKC γ (C-19), PKC δ (C-20), PKC ζ (c-20), p-PKC ζ (Thr 410)-R, p-NFκβ p65 (ser311), and RelA (p65) from Santa Cruz Biotechnology; p-LGL1/LGL2 (S650/S654), SSEA4and H3K4Me3 from Abcam; LGL2 (M06), clone 4G2 from Abnova; β-Catenin from BD Transduction Laboratories, and H3K27Me3 and H3K9Me3 from Millipore.

ERK1/2 = ERK1/2 phosphorylation in ES cells; format: cell-based, mouse; details: Gö6983 alone
Method: E14 ES Cell Cultures. Cells were grown in ES-IMDM media (Lonza, Walkersville, Md.) in a feeder-free condition. ES-IMDM was supplemented with 15% serum, 10^5 U/100 ml of LIF (ESGRO, Millipore, Calif.) and 0.0124% monothioglycerol (MTG; Sigma Aldrich). Cells were grown for 3-5 days with change of medium every day. For inducing differentiation in monolayer culture and to determine the effect of Gö6983 in preventing differentiation, E14 cells were cultured on gelatin-coated plastics for 8 days without LIF. Details of experiments performed at clonal-density are described herein. To maintain E14 cells with Gö6983, serum supplemented ES-IMDM was used in the presence of 5 μM Gö6983 and was passed after every 3-5 days. For all assays involving elucidation of different signaling mechanism responsible for maintenance of pluripotency, cells from a ˜70% confluent ES culture plate were washed two times with 1× phosphate-buffered saline (PBS), trypsinized and plated on a 6-well tissue culture plate and treated with or without LIF or Gö6983 or different inhibitors for ˜10 hours followed by preparation of protein lysates and RNA. The PKCζ knocked-down E14 cells that were generated in this study were maintained in serum supplemented ES-IMDM on gelatin-coated plates in the absence of Gö6983 or LIF or any other inhibitor and passed after 3-5 days. […]

PKCζkd cells = PKCζkd cells cultured on collagen IV without LIF; format: cell-based, mouse
Text: ES Cell Differentiation on Collagen-IV and With Retinoic Acid. To differentiate ES cells in monolayer culture on collagen IV, around 3×10^4 cells per well were transferred to collagen IV-coated 6-well plates (BD Biosciences, Franklin Lakes, N.J.) cultured for 5 days in ES differentiation medium containing DMEM (Invitrogen), 15% FBS (selected for endothelial differentiation, Stem Cell Technologies, Vancouver, BC), sodium pyruvate and L-glutamine with or without LIF and Gö6983, and were recovered by cell dissociation buffer (BD Biosciences, Franklin Lakes, N.J.). For culturing multiple passages with Gö6983 on collagen-IV, the recovered cells were again plated at a density of ˜3×10^4 cells per well and cultured again for 5 days. […] For RA-induced differentiation on monolayer culture, ES cells were treated with all-trans-retinoic acid (Sigma, St. Louis, Mo.) in ethanol at a concentration of 1 μM with or without LIF and Gö6983 for 6 days followed by study of expression of pluripotency markers (by immunofluorescence or western blot or RT-PCR analysis).
RNA Interference and Rescue of PKCζ Expression in RKCζkd Cells. Lentiviral vectors containing short hairpin RNAs (shRNAs) targeting mouse PKCζ mRNA were cloned in pLKO1 (Open Biosystems, Huntsville, Ala.). Lentiviral supernatants were produced in HEK-293T cells according to known methods (Dutta, et al. (2008) supra). […]

NF-κB target genes = experiment: RT-PCR analysis of NF-κB target gene expression; format: cell-based, mouse
Method: Quantitative RT-PCR Analysis. RNA was extracted from different cell samples with TRIZOL reagent (Invitrogen). cDNA was prepared by annealing RNA (1 μg) with 250 ng of a 5:1 mixture of random and oligo(dT) primers heated at 68° C. for 10 minutes. This was followed by incubation with Moloney murine leukemia virus reverse transcriptase (50 units) (Invitrogen, Carlsbad, Calif.) combined with 10 mM DTT, RNasin (PROMEGA, Madison, Wis.), and 0.5 mM dNTPs at 42° C. for 1 hour. Reactions were diluted to a final volume of 100 μl and heat inactivated at 97° C. for 5 minutes. Twenty μl PCR reactions contained 2 μl cDNA, 10 μl SYBR Green Master Mix (Applied Biosystems, Foster City, Calif.) and corresponding primer sets. Relative expression levels were determined from a standard curve of serial dilutions of proliferating ES cell cDNA samples and were normalized to the expression of glyceraldehyde-3-phosphate dehydrogenase (GAPDH). At least three independent experiments were done for each set of data.

T1 sequence (Q02956 whole entry): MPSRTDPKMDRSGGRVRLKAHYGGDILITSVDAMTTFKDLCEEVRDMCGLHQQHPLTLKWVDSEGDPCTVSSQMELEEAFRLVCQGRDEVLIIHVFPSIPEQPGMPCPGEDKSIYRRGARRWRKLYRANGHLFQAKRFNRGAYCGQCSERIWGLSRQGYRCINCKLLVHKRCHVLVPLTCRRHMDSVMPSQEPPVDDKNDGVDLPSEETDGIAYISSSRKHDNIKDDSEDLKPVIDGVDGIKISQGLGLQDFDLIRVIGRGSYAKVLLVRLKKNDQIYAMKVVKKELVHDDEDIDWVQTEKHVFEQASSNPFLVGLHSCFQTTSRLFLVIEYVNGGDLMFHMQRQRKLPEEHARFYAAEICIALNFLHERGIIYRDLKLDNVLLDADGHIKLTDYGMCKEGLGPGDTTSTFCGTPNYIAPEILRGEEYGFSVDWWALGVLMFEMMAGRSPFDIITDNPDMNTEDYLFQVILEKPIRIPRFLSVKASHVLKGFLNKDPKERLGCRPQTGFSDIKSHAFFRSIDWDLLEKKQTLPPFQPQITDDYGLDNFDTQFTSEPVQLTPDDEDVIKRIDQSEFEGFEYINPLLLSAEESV

## COc1ccc2c(c1)c(C1=C(c3c[nH]c4ccccc34)C(=O)NC1=O)cn2CCCN(C)C [Gö6983, 3-[1-[3-(dimethylamino)propyl]5-methoxy-1H-indol-3-yl]-4-(1H-indol-3-yl)-1H-pyrrole-2,5-dione]
PKC ζ
  PKC ζ phosphorylation in ES cells: almost completely inhibited
ERK1/2
  ERK1/2 phosphorylation: did not inhibit
PKCζkd cells; FIG. 2C
  expression of pluripotency markers in PKCζkd cells on collagen IV: maintained the expression of pluripotency markers
PKCζkd cells; without LIF
  differentiation of PKCζkd cells on collagen IV: inhibited differentiation of PKCζkd cells
NF-κB target genes; E14 cells, absence of LIF, FIG. 3A
  activation of NF-κB target gene transcription: inhibited their activation
NF-κB target genes; PKCζkd cells cultured on collagen IV
  activation of NF-κB target genes, RelA phosphorylation and reporter Luciferase: inhibited the activation
